Source: patent publication US20240190855A1 (Relay Therapeutics, Inc., priority 2021, published 2024)

molecular target: T1, CDK2/Cyclin E complex (Homo sapiens, UniProt P24941); test: CDK2/Cyclin E fluorescence-based microfluidic mobility shift assay (CDK2 Biochemical Caliper Assay); details: read-out: Biochemical CDK2/CyclinE Caliper IC50
T1 construct: purchased Eurofins 14-475
Summary of the method: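 Wild-type CDK2/Cyclin E was preincubated with compound and ATP for 30 min at RT before the 5-FAM-QSPKKG peptide was added. Final concentrations were 0.1 nM enzyme, 2000 uM ATP, 1.5 uM peptide and 1% DMSO. After 20 hr at RT and EDTA stop, substrate conversion was read by microfluidic mobility shift over an 11-point, 3-fold dilution series.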

COCc1cc2c(Nc3cc([C@H]4C[C@@H](OC(=O)NC56CC(Cl)(C5)C6)CO4)[nH]n3)nccn2n1 [Example 712] and COCc1cc2c(Nc3cc([C@@H]4C[C@H](OC(=O)NC56CC(C5)C6)CO4)[nH]n3)nccn2n1 [Example 767] cannot be ordered by IC50: ≤ 100 nM for the first, ≤ 100 nM for the second.

Cn1nc(COC(F)(F)F)cc1C(=O)Nc1cc([C@H]2C[C@@H](OC(=O)NC(C)(C)C)CO2)[nH]n1 [Example 713] and Cn1nc(COC(F)(F)F)cc1C(=O)Nc1cc([C@@H]2C[C@H](OC(=O)NC3(C)CC3)CO2)[nH]n1 [Example 773] cannot be ordered by IC50: ≤ 100 nM for the first, ≤ 100 nM for the second.

CC1(NC(=O)O[C@H]2CO[C@@H](c3cc(Nc4nccn5nc(COC(F)F)cc45)n[nH]3)C2)CC1 [Example 714] and CC1(NC(=O)O[C@H]2CO[C@@H](c3cc(Nc4nccn5nc(C(F)F)cc45)n[nH]3)C2)CC1 [Example 769] cannot be ordered by IC50: ≤ 100 nM for the first, ≤ 100 nM for the second.

COCc1cc2c(Nc3cc([C@@H]4C[C@H](Oc5nncn5C(C)C)CO4)[nH]n3)nccn2n1 [Example 715] and COCc1cc2c(Nc3cc([C@@H]4C[C@H](Oc5nncn5C(C)(C)C)CO4)[nH]n3)nccn2n1 [Example 742] cannot be ordered by IC50: ≤ 100 nM for the first, ≤ 100 nM for the second.

COCc1cc2c(Nc3cc([C@H]4C[C@@H](OC(=O)NC56CCC(CC5)OC6)CO4)[nH]n3)nccn2n1 [Example 716] and C#CC1(NC(=O)O[C@H]2CO[C@@H](c3cc(Nc4nccn5nc(COC)cc45)n[nH]3)C2)CC1 [Example 728] cannot be ordered by IC50: ≤ 100 nM for the first, ≤ 100 nM for the second.

COCc1cc2c(Nc3cc([C@H]4C[C@@H](OC(=O)NC(C)(C)C#N)CO4)[nH]n3)nccn2n1 [Example 717] and COCc1cc2c(Nc3cc([C@H]4C[C@@H](OC(=O)N[C@@H]5C[C@@H]5C)CO4)[nH]n3)nccn2n1 [Example 759] cannot be ordered by IC50: ≤ 100 nM for the first, ≤ 100 nM for the second.

COCc1cc2c(Nc3cc([C@H]4C[C@@H](COc5[nH]ncc5C(C)C)C4)[nH]n3)nccn2n1 [Example 718] and COCc1cc2c(Nc3cc([C@H]4C[C@@H](Oc5[nH]ncc5C(C)(C)C)CO4)[nH]n3)nccn2n1 [Example 768] cannot be ordered by IC50: ≤ 100 nM for the first, ≤ 100 nM for the second.

COCc1cc2c(Nc3cc([C@@H]4C[C@H](Oc5nncn5C5(C)CC5)CO4)[nH]n3)nccn2n1 [Example 719] and COCc1cc2c(Nc3cc([C@H]4C[C@@H](Oc5nncn5C5(C(F)(F)F)CC5)CO4)[nH]n3)nccn2n1 [Example 741] cannot be ordered by IC50: ≤ 100 nM for the first, 100 to 250 nM for the second.

COCc1cc2c(Nc3cc([C@H]4C[C@@H](OC(=O)N[C@H](C)C(F)(F)F)CO4)[nH]n3)nccn2n1 [Example 720] and COCc1cc2c(Nc3cc([C@H]4C[C@@H](OC(=O)N[C@@H](C)C(F)(F)F)CO4)[nH]n3)nccn2n1 [Example 721] cannot be ordered by IC50: ≤ 100 nM for the first, ≤ 100 nM for the second.

CC1(NC(=O)O[C@H]2CO[C@@H](c3cc(Nc4ncnn5cccc45)n[nH]3)C2)CC1 [Example 722] and CC1(NC(=O)O[C@H]2CO[C@@H](c3cc(Nc4nccn5nccc45)n[nH]3)C2)CC1 [Example 781] cannot be ordered by IC50: ≤ 100 nM for the first, ≤ 100 nM for the second.

CC1(NC(=O)O[C@H]2CO[C@@H](c3cc(Nc4ccc5c(n4)C(C)(C)NC5=O)n[nH]3)C2)CC1 [Example 723] and CC1(C)NC(=O)c2ccc(Nc3cc([C@H]4C[C@@H](OC(=O)NC56CC(C5)C6)CO4)[nH]n3)nc21 [Example 751] cannot be ordered by IC50: ≤ 100 nM for the first, ≤ 100 nM for the second.

Compared with Cn1ncc2cnc(Nc3cc([C@H]4C[C@@H](OC(=O)NC5(C)CC5)CO4)[nH]n3)cc21 [Example 724], Cn1ncc2c(Nc3cc([C@H]4C[C@@H](OC(=O)NC5(C)CC5)CO4)[nH]n3)nccc21 [Example 747] is higher in IC50: ≤ 100 nM for the first, 250 to 1000 nM for the second. The first is the more potent here.

Compared with CC1(NC(=O)O[C@H]2CO[C@@H](c3cc(Nc4ncnc5sncc45)n[nH]3)C2)CC1 [Example 725], CC1(NC(=O)O[C@H]2CO[C@@H](c3cc(Nc4ncnc5[nH]ccc45)n[nH]3)C2)CC1 [Example 738] is higher in IC50: ≤ 100 nM for the first, 250 to 1000 nM for the second. The first is the more potent here.

COCc1cc2c(Nc3cc([C@H]4C[C@@H](OC(=O)C5CCC5(C)C)CO4)[nH]n3)nccn2n1 (some centres unmarked) [Example 726] and COCc1cc2c(Nc3cc([C@@H]4C[C@H](OC(=O)N[C@H](C)C5CC5)CO4)[nH]n3)nccn2n1 [Example 765] cannot be ordered by IC50: ≤ 100 nM for the first, ≤ 100 nM for the second.

CC1(NC(=O)O[C@H]2CO[C@@H](c3cc(Nc4ccn5nccc5n4)n[nH]3)C2)CC1 [Example 727] and CC1(NC(=O)O[C@H]2CO[C@@H](c3cc(Nc4ccc5nccn5n4)n[nH]3)C2)CC1 [Example 732] cannot be ordered by IC50: ≤ 100 nM for the first, ≤ 100 nM for the second.

Compared with CC1(NC(=O)O[C@H]2CO[C@@H](c3cc(Nc4nccc5[nH]cnc45)n[nH]3)C2)CC1 [Example 730], Cn1cnc2c(Nc3cc([C@H]4C[C@@H](OC(=O)NC5(C)CC5)CO4)[nH]n3)nccc21 [Example 743] is higher in IC50: 250 to 1000 nM for the first, 1000 to 100000 nM for the second.

COCc1cc2c(Nc3cc([C@H]4C[C@@H](OC(=O)N5CC6CC(C6)C5)CO4)[nH]n3)nccn2n1 [Example 733] and COCc1cc2c(Nc3cc([C@H]4C[C@@H](OC(=O)N[C@H]5C[C@H]5C)CO4)[nH]n3)nccn2n1 [Example 775] cannot be ordered by IC50: 100 to 250 nM for the first, ≤ 100 nM for the second.

First: Cn1cc2ccnc(Nc3cc([C@H]4C[C@@H](OC(=O)NC5(C)CC5)CO4)[nH]n3)c2n1 [Example 734]
Second: Cn1cc2c(Nc3cc([C@H]4C[C@@H](OC(=O)NC5(C)CC5)CO4)[nH]n3)nccc2n1 [Example 745]
The IC50 of the first is higher: 1000 to 100000 nM for the first, 100 to 250 nM for the second. The second is the more potent here.

CC1(NC(=O)O[C@H]2CO[C@@H](c3cc(Nc4nccc5nccn45)n[nH]3)C2)CC1 [Example 735] and CC1(NC(=O)O[C@H]2CO[C@@H](c3cc(Nc4ccnc5nccn45)n[nH]3)C2)CC1 [Example 748] cannot be ordered by IC50: ≤ 100 nM for the first, ≤ 100 nM for the second.

CC[C@H](C)NC(=O)O[C@H]1CO[C@@H](c2cc(Nc3ccc4c(n3)C(C)(C)NC4=O)n[nH]2)C1 [Example 736] and C[C@H](NC(=O)O[C@H]1CO[C@@H](c2cc(Nc3ccc4c(n3)C(C)(C)NC4=O)n[nH]2)C1)C1CC1 [Example 740] cannot be ordered by IC50: ≤ 100 nM for the first, ≤ 100 nM for the second.

CC1(NC(=O)O[C@H]2CO[C@@H](c3cc(Nc4ccnc5nc[nH]c45)n[nH]3)C2)CC1 [Example 737] and CC1(NC(=O)O[C@H]2CO[C@@H](c3cc(Nc4ncnc5ncccc45)n[nH]3)C2)CC1 [Example 761] cannot be ordered by IC50: 100 to 250 nM for the first, ≤ 100 nM for the second.

First: CC(C)c1nc(Nc2cc([C@H]3C[C@@H](OC(=O)NC4(C)CC4)CO3)[nH]n2)c2cc[nH]c2n1 [Example 744]
Second: CC1(NC(=O)O[C@H]2CO[C@@H](c3cc(Nc4ccn5c(Cl)nnc5n4)n[nH]3)C2)CC1 [Example 755]
The IC50 of the first is lower: 100 to 250 nM for the first, 250 to 1000 nM for the second.

C[C@H](NC(=O)O[C@H]1CO[C@@H](c2cc(NC(=O)c3cc(COC(F)(F)F)nn3C)n[nH]2)C1)C1CC1 [Example 746] and C[C@H](NC(=O)O[C@@H]1CO[C@H](c2cc(NC(=O)c3cc(COC(F)(F)F)nn3C)n[nH]2)C1)C1CC1 [Example 780] cannot be ordered by IC50: ≤ 100 nM for the first, ≤ 100 nM for the second.

CC(C)n1cnnc1O[C@H]1CO[C@@H](c2cc(Nc3nccc4nccn34)n[nH]2)C1 [Example 749] and CC(C)n1cnnc1O[C@H]1CO[C@@H](c2cc(Nc3nccn4nccc34)n[nH]2)C1 [Example 784] cannot be ordered by IC50: 100 to 250 nM for the first, ≤ 100 nM for the second.

Cn1nc(COC(F)(F)F)cc1C(=O)Nc1cc([C@H]2C[C@@H](OC(=O)NC34CC(C3)C4)CO2)[nH]n1 [Example 750] and Cn1nc(COC(F)(F)F)cc1C(=O)Nc1cc([C@@H]2C[C@H](OC(=O)NC34CC(C3)C4)CO2)[nH]n1 [Example 776] cannot be ordered by IC50: ≤ 100 nM for the first, ≤ 100 nM for the second.

COCc1cc2c(Nc3cc([C@H]4C[C@@H](OC(=O)N[C@H](C)C(F)F)CO4)[nH]n3)nccn2n1 [Example 752] and COCc1cc2c(Nc3cc([C@H]4C[C@@H](OC(=O)N[C@@H](C)C(F)F)CO4)[nH]n3)nccn2n1 [Example 763] cannot be ordered by IC50: ≤ 100 nM for the first, ≤ 100 nM for the second.

Cn1nc(COC(F)F)cc1C(=O)Nc1cc([C@H]2C[C@@H](OC(=O)NC3(C)CC3)CO2)[nH]n1 [Example 753] and Cn1nc(C(F)F)cc1C(=O)Nc1cc([C@H]2C[C@@H](OC(=O)NC3(C)CC3)CO2)[nH]n1 [Example 786] cannot be ordered by IC50: ≤ 100 nM for the first, ≤ 100 nM for the second.

CC1(NC(=O)O[C@H]2CO[C@@H](c3cc(Nc4nccn5nc(C6CC6)cc45)n[nH]3)C2)CC1 [Example 754] and CC1(NC(=O)O[C@@H]2CO[C@H](c3cc(Nc4nccn5nccc45)n[nH]3)C2)CC1 [Example 782] cannot be ordered by IC50: ≤ 100 nM for the first, ≤ 100 nM for the second.

First: CN1CCc2c(ccnc2Nc2cc([C@H]3C[C@@H](OC(=O)NC4(C)CC4)CO3)[nH]n2)C1 [Example 758]
Second: CC1(NC(=O)O[C@H]2CO[C@@H](c3cc(Nc4ccc5nccnc5n4)n[nH]3)C2)CC1 [Example 762]
The IC50 of the first is higher: 1000 to 100000 nM for the first, 100 to 250 nM for the second. The second is the more potent here.

First: CC1(NC(=O)O[C@H]2CO[C@@H](c3cc(Nc4cc5nccnc5cn4)n[nH]3)C2)CC1 [Example 760]
Second: Cn1nc(C(F)(F)F)cc1C(=O)Nc1cc([C@H]2C[C@@H](OC(=O)NC3(C)CC3)CO2)[nH]n1 [Example 770]
The IC50 of the first is higher: 250 to 1000 nM for the first, ≤ 100 nM for the second. The second is the more potent here.

COCc1cc2c(Nc3cc([C@@H]4C[C@H](OC(=O)NC5(C(F)(F)F)CC5)CO4)[nH]n3)nccn2n1 [Example 764] and COCc1cc2c(Nc3cc([C@@H]4C[C@H](OC(=O)N[C@@H](C)C5CC5)CO4)[nH]n3)nccn2n1 [Example 766] cannot be ordered by IC50: ≤ 100 nM for the first, ≤ 100 nM for the second.

Cn1nc(COCC(F)(F)F)cc1C(=O)Nc1cc([C@H]2C[C@@H](OC(=O)NC3(C)CC3)CO2)[nH]n1 [Example 771] and Cn1nc(CC(F)(F)F)cc1C(=O)Nc1cc([C@H]2C[C@@H](OC(=O)NC3(C)CC3)CO2)[nH]n1 [Example 785] cannot be ordered by IC50: ≤ 100 nM for the first, ≤ 100 nM for the second.

C[C@H](NC(=O)O[C@H]1CO[C@@H](c2cc(NC(=O)c3cc(COC(F)F)nn3C)n[nH]2)C1)C1CC1 [Example 772] and Cn1nc(OC(F)(F)F)cc1C(=O)Nc1cc([C@H]2C[C@@H](OC(=O)NC3(C)CC3)CO2)[nH]n1 [Example 787] cannot be ordered by IC50: ≤ 100 nM for the first, ≤ 100 nM for the second.

Compared with CC(C)(C)n1cnnc1O[C@H]1CO[C@@H](c2cc(Nc3nccn4nccc34)n[nH]2)C1 [Example 774], COCc1cc2c(Nc3cc([C@H]4C[C@@H](Oc5nn(C)cc5C(C)(C)C)CO4)[nH]n3)nccn2n1 [Example 783] is higher in IC50: ≤ 100 nM for the first, 1000 to 100000 nM for the second. The first is the more potent here.
